Test results from patent US8815249B2 (priority 1999, dated 2014).
Where two headings read alike, the source gives them in different places. Non-standard residues stand in square brackets, D forms with d. Ava = NCCCCC(=O)O

What was measured:
[1] = test system: normal donor (DR0701) PBMC; assay type: cell-based, human
[2] = test system: normal donor (DR0402) PBMC; assay type: cell-based, human
[3] = test system: HIV gp160(843-855) peptide; assay type: in vivo; details: B10.A (5R) mice, peptides in saline solution, serum day 35
Procedure: An ELISA assay for antibody responses following immunization with the experimental peptides indicated above was performed as follows. Fifty microliters (μl) of a solution of the coating peptide at 2 μg/well in 0.1 M carbonate buffer, pH 9.5 was added to each well of a 96-well Nunc-immunoplate (#442404) for an overnight incubation at 4° C. After aspiration, 250 μl of phosphate-buffer saline solution containing 3% fetal bovine serum (assay diluent) was added to each well for 2 hr at RT. After washing three times with assay diluent, 50 μl of 20-times diluted mouse serum in 1:3 serial dilution in assay diluent was added to each well for 2 hr at RT. After washing three times with assay diluent, 50 μl of 1 ÿg/ml biotinylated goat anti-mouse IgG1 or IgG2a was added to each well and incubated for 1 hr at RT. After washing three times with assay diluent, 50 μl of streptavidin-horse radish peroxidase conjugate (1:1000) was added to each well and incubated for 30 min at RT. After washing three times with assay diluent, 100 μl of tetramethylbenzidine/H2O2 solution (Pharmingen 264KK) was added to each well for 15 min in the dark at room temperature. The reaction was stopped with 100 μl 1N H2SO4 in each well and the absorbance was read immediately at 450 nm.
B10.A (5R) mice (H-2^k/b) were immunized with 20 nmole of peptides in 50 μl phosphate-buffered saline solution, intramuscularly in right and left rear legs on days 1 and 2, respectively. On day 14 the mice were boosted intramuscularly with 40 nmole of peptides in 200 μl Hank's balanced salts solution intramuscularly in a rear leg. On day 30 the mice were boosted intravenously with 40 nmole peptides dissolved in Hank's balanced salts solution (HBSS). On day 35 the mice were sacrificed and serum samples were assayed for antibody titers against the HIV gp160(843-855) peptide.

For “AE-Her-36 (Ac-GVGSPYVSRLLGICL-NH2; listed as Homo sapiens)”, the IFN-γ spots pulsed [1] was 100 spots and the IFN-γ spots unpulsed [1] was 4 spots.

Work on AE-Her-37 (Ac-LRMKGVGSPYVSRLLGICL-NH2) yielded an IFN-γ spots pulsed [1] of 560 spots and an IFN-γ spots unpulsed [1] of 65 spots.

For “AE-Her-38 (Ac-LRMK[Ava]SPYVSRLLGICL-NH2; SMILES CC[C@H](C)[C@H](NC(=O)CNC(=O)[C@H](CC(C)C)NC(=O)[C@H](CC(C)C)NC(=O)[C@H](CCCNC(=N)N)NC(=O)[C@H](CO)NC(=O)[C@@H](NC(=O)[C@H](Cc1ccc(O)cc1)NC(=O)[C@@H]1CCCN1C(=O)[C@H](CO)NC(=O)CCCCNC(=O)[C@H](CCCCN)NC(=O)[C@H](CCSC)NC(=O)[C@H](CCCNC(=N)N)NC(=O)[C@H](CC(C)C)NC(C)=O)C(C)C)C(=O)N[C@@H](CS)C(=O)N[C@@H](CC(C)C)C(N)=O)”, the IFN-γ spots pulsed [1] was 210 spots and the IFN-γ spots unpulsed [1] was 27 spots.

“AE-Her-39 (Ac-LRMK[Ava]GVGSPYVSRLLGICL-NH2; SMILES CC[C@H](C)[C@H](NC(=O)CNC(=O)[C@H](CC(C)C)NC(=O)[C@H](CC(C)C)NC(=O)[C@H](CCCNC(=N)N)NC(=O)[C@H](CO)NC(=O)[C@@H](NC(=O)[C@H](Cc1ccc(O)cc1)NC(=O)[C@@H]1CCCN1C(=O)[C@H](CO)NC(=O)CNC(=O)[C@@H](NC(=O)CNC(=O)CCCCNC(=O)[C@H](CCCCN)NC(=O)[C@H](CCSC)NC(=O)[C@H](CCCNC(=N)N)NC(=O)[C@H](CC(C)C)NC(C)=O)C(C)C)C(C)C)C(=O)N[C@@H](CS)C(=O)N[C@@H](CC(C)C)C(N)=O)” was tested, and the IFN-γ spots pulsed [1] was 160 spots and the IFN-γ spots unpulsed [1] was 24 spots.

With “AE-Her-47 (Ac-LRMK[Ava]GSPYVSRLLGICL-NH2; SMILES CC[C@H](C)[C@H](NC(=O)CNC(=O)[C@H](CC(C)C)NC(=O)[C@H](CC(C)C)NC(=O)[C@H](CCCNC(=N)N)NC(=O)[C@H](CO)NC(=O)[C@@H](NC(=O)[C@H](Cc1ccc(O)cc1)NC(=O)[C@@H]1CCCN1C(=O)[C@H](CO)NC(=O)CNC(=O)CCCCNC(=O)[C@H](CCCCN)NC(=O)[C@H](CCSC)NC(=O)[C@H](CCCNC(=N)N)NC(=O)[C@H](CC(C)C)NC(C)=O)C(C)C)C(=O)N[C@@H](CS)C(=O)N[C@@H](CC(C)C)C(N)=O)” the IFN-γ spots pulsed [1] was 380 spots and the IFN-γ spots unpulsed [1] was 23 spots.

In the case of “AE-Her-48 (Ac-LRMK[Ava]VGSPYVSRLLGICL-NH2; SMILES CC[C@H](C)[C@H](NC(=O)CNC(=O)[C@H](CC(C)C)NC(=O)[C@H](CC(C)C)NC(=O)[C@H](CCCNC(=N)N)NC(=O)[C@H](CO)NC(=O)[C@@H](NC(=O)[C@H](Cc1ccc(O)cc1)NC(=O)[C@@H]1CCCN1C(=O)[C@H](CO)NC(=O)CNC(=O)[C@@H](NC(=O)CCCCNC(=O)[C@H](CCCCN)NC(=O)[C@H](CCSC)NC(=O)[C@H](CCCNC(=N)N)NC(=O)[C@H](CC(C)C)NC(C)=O)C(C)C)C(C)C)C(=O)N[C@@H](CS)C(=O)N[C@@H](CC(C)C)C(N)=O)”, the IFN-γ spots pulsed [1] is reported as 1770 spots and the IFN-γ spots unpulsed [1] is reported as 212 spots.

With AE-TYR-1 (Ac-ALHIYMDGTMSQVQGSA-NH2) the IFN-γ spots pulsed [2] was 120 spots and the IFN-γ spots unpulsed [2] was 0 spots.

Substance AE-TYR-2 (Ac-HNALHIYMDGTMSQVQGSA-NH2) has an IFN-γ spots pulsed [2] of 360 spots and an IFN-γ spots unpulsed [2] of 140 spots.

Work on “AE-TYR-3 (Ac-LRMK[Ava]NALHIYMDGTMSQVQGSA-NH2; SMILES CC[C@H](C)[C@H](NC(=O)[C@H](Cc1c[nH]cn1)NC(=O)[C@H](CC(C)C)NC(=O)[C@H](C)NC(=O)[C@H](CC(N)=O)NC(=O)CCCCNC(=O)[C@H](CCCCN)NC(=O)[C@H](CCSC)NC(=O)[C@H](CCCNC(=N)N)NC(=O)[C@H](CC(C)C)NC(C)=O)C(=O)N[C@@H](Cc1ccc(O)cc1)C(=O)N[C@@H](CCSC)C(=O)N[C@@H](CC(=O)O)C(=O)NCC(=O)N[C@H](C(=O)N[C@@H](CCSC)C(=O)N[C@@H](CO)C(=O)N[C@@H](CCC(N)=O)C(=O)N[C@H](C(=O)N[C@@H](CCC(N)=O)C(=O)NCC(=O)N[C@@H](CO)C(=O)N[C@@H](C)C(N)=O)C(C)C)[C@@H](C)O)” yielded an IFN-γ spots pulsed [2] of 310 spots and an IFN-γ spots unpulsed [2] of 70 spots.

For “AE-TYR-4 (Ac-LRMK[Ava]ALHIYMDGTMSQVQGSA-NH2; SMILES CC[C@H](C)[C@H](NC(=O)[C@H](Cc1c[nH]cn1)NC(=O)[C@H](CC(C)C)NC(=O)[C@H](C)NC(=O)CCCCNC(=O)[C@H](CCCCN)NC(=O)[C@H](CCSC)NC(=O)[C@H](CCCNC(=N)N)NC(=O)[C@H](CC(C)C)NC(C)=O)C(=O)N[C@@H](Cc1ccc(O)cc1)C(=O)N[C@@H](CCSC)C(=O)N[C@@H](CC(=O)O)C(=O)NCC(=O)N[C@H](C(=O)N[C@@H](CCSC)C(=O)N[C@@H](CO)C(=O)N[C@@H](CCC(N)=O)C(=O)N[C@H](C(=O)N[C@@H](CCC(N)=O)C(=O)NCC(=O)N[C@@H](CO)C(=O)N[C@@H](C)C(N)=O)C(C)C)[C@@H](C)O)”, the IFN-γ spots pulsed [2] was 620 spots and the IFN-γ spots unpulsed [2] was 340 spots.

“AE-TYR-6 (Ac-LRMK[Ava]HIYMDGTMSQVQGSA-NH2; SMILES CC[C@H](C)[C@H](NC(=O)[C@H](Cc1c[nH]cn1)NC(=O)CCCCNC(=O)[C@H](CCCCN)NC(=O)[C@H](CCSC)NC(=O)[C@H](CCCNC(=N)N)NC(=O)[C@H](CC(C)C)NC(C)=O)C(=O)N[C@@H](Cc1ccc(O)cc1)C(=O)N[C@@H](CCSC)C(=O)N[C@@H](CC(=O)O)C(=O)NCC(=O)N[C@H](C(=O)N[C@@H](CCSC)C(=O)N[C@@H](CO)C(=O)N[C@@H](CCC(N)=O)C(=O)N[C@H](C(=O)N[C@@H](CCC(N)=O)C(=O)NCC(=O)N[C@@H](CO)C(=O)N[C@@H](C)C(N)=O)C(C)C)[C@@H](C)O)” was tested, and the IFN-γ spots pulsed [2] was 650 spots and the IFN-γ spots unpulsed [2] was 280 spots.

For “Ac-LRMK-ava-AYRAIRHIPR-NH2 (Ac-LRMK[Ava]AYRAIRHIPR-NH2; SMILES CC[C@H](C)[C@H](NC(=O)[C@H](C)NC(=O)[C@H](CCCNC(=N)N)NC(=O)[C@H](Cc1ccc(O)cc1)NC(=O)[C@H](C)NC(=O)CCCCNC(=O)[C@H](CCCCN)NC(=O)[C@H](CCSC)NC(=O)[C@H](CCCNC(=N)N)NC(=O)[C@H](CC(C)C)NC(C)=O)C(=O)N[C@@H](CCCNC(=N)N)C(=O)N[C@@H](Cc1c[nH]cn1)C(=O)N[C@H](C(=O)N1CCC[C@H]1C(=O)N[C@@H](CCCNC(=N)N)C(N)=O)[C@@H](C)CC) [Ii-Key/one-ava/gp160(843-855)]”, the “Antibody induction, ELISA against HIV gp160(843-855) peptide” value (“Antibody induction, ELISA” for short) ([3]; Dilution^−1 20) was 0.600, the “Antibody induction, ELISA” value ([3]; Dilution^−1 60) was 0.157 and the “Antibody induction, ELISA” value ([3]; Dilution^−1 180) was 0.073. The “Antibody induction, ELISA” value ([3]; Dilution^−1 540) was 0.024.

For “Ac-LRMK-ava-ava-AYRAIRHIPR-NH2 (Ac-LRMK[Ava][Ava]AYRAIRHIPR-NH2; SMILES CC[C@H](C)[C@H](NC(=O)[C@H](C)NC(=O)[C@H](CCCNC(=N)N)NC(=O)[C@H](Cc1ccc(O)cc1)NC(=O)[C@H](C)NC(=O)CCCCNC(=O)CCCCNC(=O)[C@H](CCCCN)NC(=O)[C@H](CCSC)NC(=O)[C@H](CCCNC(=N)N)NC(=O)[C@H](CC(C)C)NC(C)=O)C(=O)N[C@@H](CCCNC(=N)N)C(=O)N[C@@H](Cc1c[nH]cn1)C(=O)N[C@H](C(=O)N1CCC[C@H]1C(=O)N[C@@H](CCCNC(=N)N)C(N)=O)[C@@H](C)CC) [Ii-Key/two-ava/gp160(843-855)]”, the “Antibody induction, ELISA” value ([3]; Dilution^−1 20) was 0.131, the “Antibody induction, ELISA” value ([3]; Dilution^−1 60) was 0.039 and the “Antibody induction, ELISA” value ([3]; Dilution^−1 180) was 0.027. For the same substance, the “Antibody induction, ELISA” value ([3]; Dilution^−1 540) was 0.003.
